Holding throughout (test): inhibition of tumour cell growth, NCI panel, 48 h
Assay [1] concerns BT-549 breast.
Assay [2] deals with HCT-116 colon.
Assay [3] concerns HOP-62 NSCLC.
Assay [4] has as its system HS 578T breast.
Assay [5] concerns IGROV1 ovarian.
For assay [6], the system named is K-562 leukemia.
Assay [7] has as its system MDA-MB-231 breast.
Assay [8] has as its system MDA-N.
Assay [9] relates to MOLT-4 leukemia.
Assay [10] concerns NCI/ADR-RES ovarian.
Assay [11] deals with PC-3 prostate.
For assay [12], the system named is SF-539 CNS.
The test system of assay [13] is SK-MEL-2 melanoma.
Assay [14] relates to SK-MEL-28 melanoma.
Assay [15] relates to SN12C renal.
Assay [16] has as its system SNB-19 CNS.
Assay [17] concerns UACC-257 melanoma.
Assay [18] concerns UACC-62 melanoma.
Assay [19] relates to UO-31 renal.
The subject of assay [20] is HCC-2998 colon.

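The compound was tested at five concentrations on cells cultured in 96-well plates, with a 48-hour exposure period. The concentration for full growth arrest is given as TGI.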

With `CC(O)C1(CNc2cc(Cl)nc(N)n2)CC(CCc2ccccc2)C1` (stereo not drawn), the TGI in assay [1] stood at 33.6 µM; in assay [2], 21.1 µM; in [3], 27.3 µM; in assay [4], 38.4 µM; in assay [5], 28.4 µM; in [6] it was 86.4 µM. Further, the TGI in [7] worked out at 22.5 µM; in [8] it was 27.6 µM; in assay [9], 56 µM; in assay [10], 21.8 µM; in assay [11] it was 25.3 µM; in assay [12], 32.6 µM. For the same compound, the TGI in assay [13] turned out to be 31.7 µM; in assay [14] it was 27.8 µM; in [15], 20.9 µM; in assay [16], 34 µM; in [17], 19.8 µM; in [18], 24.5 µM. Further, the TGI in [19] amounted to 24.6 µM.

As for `O=c1[nH]c(=O)n(C2CC(O)C(CO)O2)cc1OCC1CCCCC1` (stereo not drawn), the TGI in assay [1], in [2], in assay [3], in assay [4], in assay [5] and in assay [6] was > 100 µM each time. In addition, the TGI in assay [7], in assay [8], in [9], in assay [10], in assay [11] and in [14] was > 100 µM throughout. Besides, the TGI in assay [15], in [16], in [17], in assay [18] and in assay [19] was > 100 µM throughout.

Turning to `COc1ccc2c(ccc3c(COC(=O)NC(C)C)c(COC(=O)NC(C)C)n(C)c32)c1`, the TGI is 29.4 µM in assay [1]; 17.4 µM in assay [2]; 20.9 µM in [3]; 38.2 µM in assay [4]; 26 µM in [5]; > 100 µM in assay [6]. The TGI in [7] was 34.2 µM; in assay [8] it was 24.7 µM; in assay [9] it was > 100 µM; in [10], 22.9 µM; in assay [11], 24.3 µM; in assay [12], 20.9 µM. The TGI in assay [13] is 32.5 µM; in [16] it was > 100 µM; in [17] it was 27.1 µM; in [18] it was 18.4 µM; in [19], 28.9 µM.

As to `O=c1c2cc([N+](=O)[O-])ccc2nc2n1CCCCC2`, the TGI in [1], in assay [2], in [3], in assay [4], in [5] and in assay [6] was > 100 µM throughout. Also, the TGI in assay [7], in assay [8], in [9], in assay [10], in [11] and in assay [12] was > 100 µM in each case. For the same compound, the TGI in assay [13], in [14], in assay [15], in assay [17], in assay [18] and in assay [19] was > 100 µM throughout.

For `C[C@]12CC[C@H](O)CC1=CC[C@@H]1[C@@H]2CC[C@]2(C)C(=N/O)/C(=C/c3ccc([N+](=O)[O-])cc3)C[C@@H]12`, the TGI in assay [1] turned out to be 26.3 µM; in assay [20], 23 µM; in assay [2], 15.7 µM; in [3], 21.1 µM; in assay [4] it was 63.5 µM; in assay [5], 26.7 µM. The TGI in assay [6] came to 59.9 µM; in assay [8] it was 28.4 µM; in assay [9], 20.5 µM; in [10] it was 25.9 µM; in [11] it was 14.3 µM; in assay [12], 19.3 µM. The TGI in assay [13] was 15.5 µM; in assay [14] it was 22.8 µM; in assay [15], 7.14 µM; in assay [16], 22.4 µM; in assay [17] it was 16.5 µM; in assay [18], 28.6 µM. In [19], this compound displayed a TGI of 24.7 µM.

Take `COC(=O)c1c2c(cc3c1CC1(Cc4cc5c(cc4C1=O)CCC5)C3)CCC2` (stereo not drawn): the TGI in [1], in assay [20], in assay [2], in assay [3], in assay [4] and in assay [5] was > 100 µM throughout. Also, the TGI in assay [6], in assay [7], in [8], in [9], in assay [11] and in assay [12] was > 100 µM each time. The TGI in [13], in [14], in [15], in assay [16], in assay [17] and in [18] was > 100 µM throughout. Moreover, in [19], the TGI is > 100 µM.

Turning to `CC(C)=CCN1c2ccc(Cl)cc2NC(=O)CC1C` (stereo not drawn), the TGI in assay [1] was 59.5 µM; in assay [20], > 100 µM; in assay [2], 38 µM; in assay [3], 61.7 µM; in assay [4], 72.1 µM; in assay [5] it was 62.4 µM. In addition, the TGI in assay [6] was > 100 µM; in assay [7], 45.7 µM; in [8], 51.7 µM; in assay [9] it was > 100 µM; in assay [11], 61.1 µM; in assay [12], 45.4 µM. The TGI was 39.5 µM in [13]; > 100 µM in assay [14]; 58 µM in assay [15]; > 100 µM in assay [16]; 47.3 µM in assay [17]; > 100 µM in assay [19].

Take `COC(=O)CSC(=S)Nc1nnc(NC(=S)SCOC(C)=O)n1C(=S)SCC(=O)OC`: the TGI was > 100 µM in [1]; > 100 µM in [20]; > 100 µM in assay [2]; 37.5 µM in assay [3]; > 100 µM in assay [4]; > 100 µM in [5]. Besides, the TGI in [6], in [8], in assay [9], in assay [10], in [11] and in assay [14] was > 100 µM in each case. The TGI in assay [15], in assay [16], in assay [17], in assay [18] and in [19] was > 100 µM in each case.

For the compound `Cc1ccc(/C=C2\Cc3cccc(C)c3C2=O)c(C(=O)O)c1`, the TGI in assay [1], in [20], in assay [2], in assay [3], in assay [4] and in assay [5] was > 100 µM throughout. In addition, the TGI in assay [6], in assay [7], in assay [8], in assay [9], in assay [11] and in [12] was > 100 µM each time. Further, the TGI in [14] is > 100 µM; in assay [15], > 100 µM; in assay [16] it was > 100 µM; in assay [17], > 100 µM; in [19], 31.4 µM.

In the case of `CC(=O)OCCOc1cc2c([nH]c3ccccc32)c(C)c2cccc1-2`, the TGI in assay [1] was 8.22 µM; in assay [2], 13.1 µM; in [3], 18.5 µM; in assay [4], > 100 µM; in assay [5] it was 4.84 µM; in [6] it was > 100 µM. The TGI in assay [7] is 3.38 µM; in assay [8], 11 µM; in [9], > 100 µM; in assay [10] it was > 100 µM; in assay [11], 3.68 µM; in assay [12], 3.62 µM. The TGI in assay [13] came out at 4.96 µM; in assay [14] it was 7.57 µM; in assay [15], 10.9 µM; in [16], 8.97 µM; in assay [17] it was 3.74 µM; in [18] it was 6.05 µM. Further, in [19], the TGI came out at 3.34 µM.

For the compound `Cc1ccc(-c2nc(-c3cnccn3)n(C3OC(CO)C(O)C(O)C3O)n2)cc1` (stereo not drawn), the TGI in assay [1], in assay [20], in assay [2], in assay [3], in [5] and in [6] was > 100 µM in each case. The TGI in assay [7], in assay [8], in [9], in [10], in assay [11] and in [12] was > 100 µM throughout. Further, the TGI in assay [14], in assay [15], in assay [16], in [17], in assay [18] and in assay [19] was > 100 µM each time.

Regarding `COc1cc(N(Cc2ccc3nc(OC)c(OC)nc3c2)Cc2ccc3nc(OC)c(OC)nc3c2)cc(OC)c1OC`, the TGI in [1] is > 50 µM; in [2], > 50 µM; in assay [3], > 50 µM; in [4], 27.2 µM; in [8], > 50 µM; in assay [9], > 50 µM. For the same compound, the TGI in assay [10], in assay [11], in assay [12], in assay [13], in assay [14] and in assay [15] was > 50 µM throughout. Besides, the TGI in assay [16] is 47.7 µM; in assay [17], > 50 µM; in assay [18], > 50 µM; in assay [19], > 50 µM.

In the case of `Clc1ccc(-c2ccc(-c3nn4c(CNc5ccccc5)nnc4s3)o2)c(Cl)c1`, the TGI in assay [1], in assay [2], in [3], in assay [4], in assay [5] and in assay [6] was > 100 µM throughout. In addition, the TGI in [7] was > 100 µM; in [8] it was > 100 µM; in assay [9] it was > 100 µM; in assay [10], > 100 µM; in assay [11] it was > 100 µM; in [12] it was 76.4 µM. In addition, the TGI in assay [13], in assay [14], in [15], in [16], in assay [17] and in [19] was > 100 µM throughout.

For `C[Si](C)(OCCS(=O)(=O)O)OC(=C1S(=O)(=O)OCCOS1(=O)=O)c1cccc2ccccc12`, the TGI in assay [1], in assay [20], in assay [2], in assay [3], in assay [5] and in assay [6] was > 100 µM throughout. In addition, the TGI in [7], in [8], in assay [9], in [10], in [11] and in assay [12] was > 100 µM throughout. For the same compound, the TGI in assay [13], in assay [14], in assay [15], in assay [16], in [17] and in assay [19] was > 100 µM throughout.

In the case of `CNc1nnc(CNc2ccc(-c3nnc(NC)n3N)cc2)n1N`, the TGI in assay [1] is > 100 µM; in [20] it was 93.8 µM; in [2], > 100 µM; in assay [3], > 100 µM; in assay [5], > 100 µM; in assay [6], > 100 µM. Also, the TGI in assay [7], in [8], in [9], in assay [10], in assay [11] and in [12] was > 100 µM in each case. In addition, the TGI in assay [13], in assay [14], in [15], in [16], in [17] and in [19] was > 100 µM each time.

Values taken from PubChem BioAssay (NCI).
